Assay results from PubChem BioAssay AID248 (DTP/NCI, 2004).
Inconclusive results and toxic doses are left out. No stated cut-off is given here; in the data, active means T/C of 150% or more; inactive means T/C below 125%.

System: L1210 leukemia ip in BDF1 mice, survival T/C
Test: NCI In Vivo Anticancer Drug Screen. Data for tumor model L1210 Leukemia (intraperitoneal) in B6D2F1 (BDF1) mice
Conditions: endpoint: mean survival time, higher = longer survival
In short: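 Antitumor effect is assessed in tumor-bearing animals. Survival in the compound arm is compared with a vehicle-dosed control arm and expressed as their quotient.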

Measured: T/C

Cc1ccccc1N1CCN(CCC(=O)c2cc3ccccc3o2)CC1
inactive: dose: 5.0 mg/kg/injection, schedule: Q01DX009 (ip), vehicle: saline with Tween-80 104 % of control | dose: 9.5 mg/kg/injection, schedule: Q04DX003 (ip), vehicle: saline with Tween-80 96 % of control | dose: 10.0 mg/kg/injection, schedule: Q01DX009 (ip), vehicle: saline with Tween-80 100 % of control | dose: 18.0 mg/kg/injection, schedule: Q01DX001 (ip), vehicle: saline with Tween-80 94 % of control | dose: 19.0 mg/kg/injection, schedule: Q04DX003 (ip), vehicle: saline with Tween-80 116 % of control | dose: 20.0 mg/kg/injection, schedule: Q01DX009 (ip), vehicle: saline with Tween-80 106 % of control | dose: 37.5 mg/kg/injection, schedule: Q01DX001 (ip), vehicle: saline with Tween-80 101 % of control

O=C1C(n2ccc(=O)[nH]c2=O)CCN1CCO (stereo not drawn)
inactive: dose: 100.0 mg/kg/injection, schedule: Q01DX009 (ip), vehicle: saline 105 % of control | dose: 200.0 mg/kg/injection, schedule: Q01DX009 (ip), vehicle: saline 100 % of control | dose: 400.0 mg/kg/injection, schedule: Q01DX009 (ip), vehicle: saline 97 % of control

CC(=O)c1ccc(F)cc1
inactive: dose: 50.0 mg/kg/injection, schedule: Q01DX009 (ip), vehicle: Klucel (hydroxypropylcellulose) (HPC) 98 % of control | dose: 100.0 mg/kg/injection, schedule: Q01DX009 (ip), vehicle: Klucel (hydroxypropylcellulose) (HPC) 98 % of control | dose: 100.0 mg/kg/injection, schedule: Q04DX003 (ip), vehicle: Klucel (hydroxypropylcellulose) (HPC) 86 % of control | dose: 200.0 mg/kg/injection, schedule: Q01DX009 (ip), vehicle: Klucel (hydroxypropylcellulose) (HPC) 97 % of control | dose: 200.0 mg/kg/injection, schedule: Q04DX003 (ip), vehicle: Klucel (hydroxypropylcellulose) (HPC) 98 % of control

COC(=O)CC(=O)C(C)(C)C
inactive: dose: 50.0 mg/kg/injection, schedule: Q01DX009 (ip), vehicle: saline with Tween-80 101 % of control | dose: 100.0 mg/kg/injection, schedule: Q01DX009 (ip), vehicle: saline with Tween-80 101 % of control | dose: 200.0 mg/kg/injection, schedule: Q01DX009 (ip), vehicle: saline with Tween-80 101 % of control

CCCCCc1ccc(C)cc1OC(=O)CCl
inactive: dose: 28.0 mg/kg/injection, schedule: Q01DX Z (ip), vehicle: methylcellulose (MC) 97 % of control | dose: 42.0 mg/kg/injection, schedule: Q01DX Z (ip), vehicle: methylcellulose (MC) 97 % of control | dose: 62.0 mg/kg/injection, schedule: Q01DX Z (ip), vehicle: methylcellulose (MC) 92 % of control

NOCc1c(F)c(F)c(F)c(F)c1F
inactive: dose: 100.0 mg/kg/injection, schedule: Q04DX003 (ip), vehicle: saline sonified 93 % of control | dose: 200.0 mg/kg/injection, schedule: Q04DX003 (ip), vehicle: saline sonified 104 % of control

COc1cc2c3c(c4ccc(O)cc4c2cc1OC)[C@@H](O)[C@@H]1CCCN1C3
inactive: dose: 2.5 mg/kg/injection, schedule: Q01DX005 (ip), vehicle: water 106 % of control | dose: 2.5 mg/kg/injection, schedule: Q01DX009 (ip), vehicle: water 95 % of control | dose: 2.5 mg/kg/injection, schedule: Q01DX015 (ip), vehicle: water 105 % of control | dose: 5.0 mg/kg/injection, schedule: Q01DX001 (ip), vehicle: water 98 % of control | dose: 5.0 mg/kg/injection, schedule: Q01DX005 (ip), vehicle: water 104 % of control | dose: 5.0 mg/kg/injection, schedule: Q01DX009 (ip), vehicle: water 119 % of control | dose: 5.0 mg/kg/injection, schedule: Q01DX009 (sc), vehicle: water 109 % of control | dose: 5.0 mg/kg/injection, schedule: Q01DX015 (ip), vehicle: water 120 % of control | dose: 5.0 mg/kg/injection, schedule: Q02DX005 (ip), vehicle: water 114 % of control | dose: 5.0 mg/kg/injection, schedule: Q## X003 (ip), vehicle: water 111 % of control | dose: 6.0 mg/kg/injection, schedule: Q01DX Z (ip), vehicle: water 124 % of control | dose: 6.7 mg/kg/injection, schedule: Q01DX015 (ip), vehicle: water 112 % of control | dose: 7.1 mg/kg/injection, schedule: Q01DX015 (ip), vehicle: water 112 % of control | dose: 10.0 mg/kg/injection, schedule: Q01DX001 (ip), vehicle: water 108 % of control | dose: 10.0 mg/kg/injection, schedule: Q01DX005 (ip), vehicle: water 109 % of control | dose: 10.0 mg/kg/injection, schedule: Q01DX009 (ip), vehicle: water 119 % of control | dose: 10.0 mg/kg/injection, schedule: Q01DX009 (oral), vehicle: water 114 % of control | dose: 10.0 mg/kg/injection, schedule: Q01DX009 (sc), vehicle: water 122 % of control | dose: 10.0 mg/kg/injection, schedule: Q01DX015 (ip), vehicle: water 112 % of control | dose: 10.0 mg/kg/injection, schedule: Q## X003 (ip), vehicle: water 101 % of control | dose: 15.0 mg/kg/injection, schedule: Q01DX005 (ip), vehicle: water 117 % of control | dose: 15.0 mg/kg/injection, schedule: Q01DX009 (ip), vehicle: water 120 % of control | dose: 15.0 mg/kg/injection, schedule: Q01DX009 (sc), vehicle: water 119 % of control | dose: 15.0 mg/kg/injection, schedule: Q01DX015 (ip), vehicle: water 109 % of control | dose: 15.0 mg/kg/injection, schedule: Q02DX005 (ip), vehicle: water 124 % of control | dose: 15.0 mg/kg/injection, schedule: Q## X003 (ip), vehicle: water 119 % of control | dose: 20.0 mg/kg/injection, schedule: Q01DX001 (ip), vehicle: water 104 % of control | dose: 20.0 mg/kg/injection, schedule: Q01DX009 (ip), vehicle: water 114 % of control | dose: 20.0 mg/kg/injection, schedule: Q01DX009 (oral), vehicle: water 109 % of control | dose: 20.0 mg/kg/injection, schedule: Q01DX009 (sc), vehicle: water 88 % of control | dose: 20.0 mg/kg/injection, schedule: Q01DX Z (ip), vehicle: water 110 % of control | dose: 20.0 mg/kg/injection, schedule: Q## X003 (ip), vehicle: water 117 % of control | dose: 22.5 mg/kg/injection, schedule: Q01DX015 (ip), vehicle: water 123 % of control | dose: 25.0 mg/kg/injection, schedule: Q01DX015 (ip), vehicle: water 96 % of control | dose: 30.0 mg/kg/injection, schedule: Q01DX009 (oral), vehicle: water 100 % of control | dose: 40.0 mg/kg/injection, schedule: Q01DX001 (ip), vehicle: water 114 % of control
active: dose: 12.0 mg/kg/injection, schedule: Q01DX Z (ip), vehicle: water 151 % of control

CNC(=S)N/N=C(\C=N\NC(=S)NC)c1ccccc1
inactive: dose: 50.0 micrograms/kg/injection, schedule: Q01DX009 (ip), vehicle: carboxymethylcellulose (CMC) 88 % of control

Cc1ncc2c(n1)NC(c1ccc(Cl)cc1)=NC2
inactive: dose: 75.0 mg/kg/injection, schedule: Q01DX001 (ip), vehicle: other 91 % of control | dose: 150.0 mg/kg/injection, schedule: Q01DX001 (ip), vehicle: other 100 % of control | dose: 300.0 mg/kg/injection, schedule: Q01DX001 (ip), vehicle: other 96 % of control

COc1ccc(OC)c(C(O)C(C)NC(C)(C)C)c1 (stereo not drawn)
inactive: dose: 50.0 mg/kg/injection, schedule: Q01DX001 (ip), vehicle: saline 106 % of control | dose: 100.0 mg/kg/injection, schedule: Q01DX001 (ip), vehicle: saline 97 % of control

C[N+](C)(C)/N=C/c1ccc(Cl)cc1
inactive: dose: 5.0 mg/kg/injection, schedule: Q01DX001 (ip), vehicle: carboxymethylcellulose (CMC) 98 % of control | dose: 10.0 mg/kg/injection, schedule: Q01DX001 (ip), vehicle: carboxymethylcellulose (CMC) 104 % of control | dose: 20.0 mg/kg/injection, schedule: Q01DX001 (ip), vehicle: carboxymethylcellulose (CMC) 95 % of control | dose: 40.0 mg/kg/injection, schedule: Q01DX001 (ip), vehicle: carboxymethylcellulose (CMC) 104 % of control

COC(=O)c1nc(Cl)nc(I)c1Cl
inactive: dose: 12.5 mg/kg/injection, schedule: Q01DX001 (ip), vehicle: other 102 % of control | dose: 25.0 mg/kg/injection, schedule: Q01DX001 (ip), vehicle: other 90 % of control

CC1(C)OCC(C2OC(N)C(O)C2O)O1 (stereo not drawn)
inactive: dose: 100.0 mg/kg/injection, schedule: Q04DX002 (ip), vehicle: saline 94 % of control | dose: 200.0 mg/kg/injection, schedule: Q04DX002 (ip), vehicle: saline 97 % of control | dose: 400.0 mg/kg/injection, schedule: Q04DX002 (ip), vehicle: saline 102 % of control

O=C(O)C1CC=CCC1c1ccccc1 (stereo not drawn)
inactive: dose: 100.0 mg/kg/injection, schedule: Q04DX003 (ip), vehicle: other 96 % of control | dose: 200.0 mg/kg/injection, schedule: Q04DX003 (ip), vehicle: other 96 % of control | dose: 400.0 mg/kg/injection, schedule: Q04DX003 (ip), vehicle: other 101 % of control
